# Columns and labels:
# [1] = Screen of pH-based color changing tracers in biocompatible-grade silicone material; format: physicochemical; settings: biocompatible-grade silicone placed into an aqueous environment
# Procedure: For the second approach, research efforts focused on developing systems for analyzing biological constituents that diffuse into the ring causing a pH change (FIG. 2B, ii). To accomplish this testing strategy, a variety of pH-based color changing formulations were evaluated in biocompatible-grade silicone material. […] This material screen also facilitated the abandonment of tracers with poor performance, such as highly hydrophilic molecular families with high expulsion tendencies.
# [2] = Diffusion of indicator out of silicone (PDMS) vaginal ring into surrounding solution; format: physicochemical; settings: aqueous conditions, over the course of one week (FIG. 3B)
# Procedure: Two different approaches were tested to assess the usage of the vaginal ring (FIG. 2A and FIG. 2B). First, a system with signal change resultant of indicator diffusion (i) out of the ring was tested (FIG. 2A).
# In these cases, silicone (polydimethyl siloxane, PDMS) was utilized in combination with rhodamine-B, fluorescein, and a rhodamine-B/Brilliant Blue combination. (FIG. 3A).
compound,measurement,setting,value
O=C1c2ccccc2C(=O)c2c1ccc(O)c2O [Alazarin],leaching of tracer from the silicone material,[1],readily leached from the silicone material
CN(C)c1ccc(/N=N/c2ccccc2C(=O)O)cc1 [Methyl Red],leaching of tracer from the silicone material,[1],readily leached from the silicone material
CCN(CC)c1ccc2c(-c3ccccc3C(=O)O)c3ccc(=[N+](CC)CC)cc-3oc2c1.[Cl-] [rhodamine-B],release of indicator from the silicone material,[2],readily released from the silicone material

# From patent publication US11147763B2, “Vaginal ring with visual indication of use” (RESEARCH TRIANGLE INSTITUTE, priority 2015, dated 2021)
